{"source": "patent EP4324461A1", "about": "“(E)-N-CINAMOYLAMINOALKANOLES WITH MELANOGENESIS INHIBITORY ACTIVITY” (UNIWERSYTET JAGIELLONSKI, priority 2022, dated 2024)", "key": {"neuroblastoma SH-SY5Y": {"tested_on": "neuroblastoma SH-SY5Y", "experiment": "Safety, MTT test in SH-SY5Y", "format": "cell-based", "conditions": "48 hours", "experimental": "(§1) In order to test the safety of the compounds, both normal human cells were used: keratinocytes (HaCaT), fibroblasts (BJ), primary melanocytes that occur in the skin, as well as human cancer cells: the hepatocarcinoma line HepG2 and the neuroblastoma line SH-SY5Y, which are considered a model for the assessment of hepatocytotoxicity and neurocytotoxicity. The concentrations of the tested compounds in the range of 250-100 µM were used in the studies. The cell lines used in the research were purchased from the American Type Culture Collection (ATCC) and were cultured in media recommended by the manufacturer with the addition of FBS and antibiotics in an incubator ensuring appropriate culture conditions, i.e. humidity, temperature and CO2 concentration. Cells were seeded into multiwell plates and incubated with the test compounds for 48 hours. After this time, MTT and LDH tests were performed to assess cell viability. The MTT test is based on the ability to transform the substrate: [3-(4,5-dimethyl-2-thiazolyl)-2,5-diphenyl-2H-tetrazolium bromide into a colored product only by living cells. The absorbance at 570 nm, which corresponds to the absorption maximum for the product, is directly proportional to cell viability. The LDH test is based on testing the activity of the enzyme lactate dehydrogenase in the culture medium, which is released from cells as a result of damage to the cell membrane, e.g. as a result of cell death. Triton X-100 was used as a positive control in the test. The determination is colorimetric, the substrate is transformed by the released enzyme into a colored product, an increase in absorbance indicates a larger amount of the released enzyme, and thus confirms greater damage to cell membranes. Tables 7 and 8 present the results obtained, which correspond to the viability of cells incubated with the compounds in relation to the viability of cells constituting a control sample, i.e. incubated with the solvent (DMSO) at the same concentration as in the case of the groups tested in the MTT test or in relation to the results obtained for the Triton X-100 positive control in the LDH test. They indicate that the compounds are safe at the concentrations tested. Table 7. Viability of tested normal human cell lines: keratinocytes (HaCaT), fibroblasts (BJ) and primary melanocytes after incubation with the tested compounds - determination in the MTT test (% of solvent control ± SD) and LDH (percentage of positive control - Triton X-100."}, "[1]": {"tested_on": "reconstructed human epidermis containing melanocytes MelanoDerm™ MEL-300-B", "experiment": "Melanogenesis inhibition in reconstructed human epidermis containing melanocytes (MelanoDerm)", "format": "cell-based", "conditions": "1.0% in 50% PEG (10 µL), 14 days", "experimental": "(§2) The research was carried out on reconstructed human epidermis containing melanocytes MelanoDerm™ MEL-300-B from MatTek (Bratislava, Slovakia). The ratio of keratinocytes to melanocytes in the epidermis used is 10:1. Only medium purchased from the same manufacturer (EPI-100-NMM-113) was used to culture the epidermis during the experiments. Once the epidermis was obtained, it was transferred to 12-well plates containing 5 mL of medium/well. Plates were used to enable proper contact of the lower parts of the inserts with the substrate (so-called hanging-top plate). Solutions of the compounds were prepared immediately before their application. The solutions were applied to the inserts using a positive displacement pipette and then distributed using a sterile glass bulb headed Pasteur pipette. The application was repeated every 48 hours, a total of 7 applications were performed. Before the next application, each insert was rinsed with sterile DPBS and dried with a sterile cotton buds. The application was also accompanied by a change of the medium. […] The epidermis was cultured in an incubator ensuring appropriate humidity, temperature (37 °C) and CO2 concentration (5%).\nThe experiment was conducted for 14 days. After this time, the inserts were rinsed with DPBS and dried with a cotton swab. For the selected pool of inserts, tissue viability was assessed using the MTT (Thiazolyl Blue Tetrazolium bromide) test, the remaining ones were used to determine the amount of melanin. To assess viability, the inserts were transferred to 24-well plate containing 0.3 mL of DMEM medium with 1 mg/mL MTT and incubated for 3 hours in an incubator. The epidermis was then placed in 2 mL of isopropanol and the resulting formazan was extracted for 2 hours at room temperature. The absorbance of the samples was measured at 570 nm in a microplate reader and correlated with the absorbance of the control by the formula: % Viability = [OD (570 nm) for test compound/OD (570 nm) for control] × 100. To determine the amount of melanin, the inserts were incubated in 5% sodium bicarbonate for 30 min, then dried and placed in 0.5 mL of Solvable™ reagent, which caused complete lysis of the epidermis. After heating at 95 °C, the absorbance of the samples was measured at 405 nm in a microplate reader. On this basis, the reduction in the amount of melanin was calculated in relation to the control sample. The absorbance results were also correlated with a standard curve for synthetic melanin. […] Table 5. Viability and melanin content in the MelanoDerm epidermis after application of the tested samples, calculated on the basis of absorbance measurements.\nas §2, with “Only media” for “Only medium”, “cotton bud.” for “cotton buds.”\nThe experiment was conducted for 14 days. After this time, the inserts were rinsed with DPBS and dried with a cotton bud. […]"}, "S. typhimurium TA1535": {"tested_on": "S. typhimurium TA1535", "experiment": "Ames microplate test, TA1535", "procedure": "The study used the Ames microplate test (Ames MPF™ Penta 2 by Xenometrix, Allschwil, Switzerland). Growth medium, exposure medium, indicator medium, positive controls, hepatic microsomal fraction, NADP, glucose-6-phosphate, Salmonella typhimurium and Escherichia coli strains were components of the purchased experimental kit. Bacteria were grown overnight in growth medium. They were then exposed to the test compound at the appropriate concentration in exposure medium without or with the rat microsomal fraction S9 in 24-well plates for 90 min at 37 °C with shaking. Then, indicator medium was added to the wells and pipetted into 384-well plates, which were incubated for 48 hours at 37 °C without shaking. Results were assessed by counting the wells in which the medium turned yellow for each experimental condition."}, "Keratinocytes (HaCaT)": {"tested_on": "Keratinocytes (HaCaT)", "experiment": "Safety, LDH test in keratinocytes", "format": "cell-based", "conditions": "48 hours, positive control Triton X-100", "experimental": "as §1"}, "S. typhimurium TA100": {"tested_on": "S. typhimurium TA100", "experiment": "Ames microplate test, TA100", "format": "cell-based, Salmonella typhimurium", "experimental": "Bacteria were grown overnight in growth medium.\nTable 9. Ames microplate test results."}}}
{"smiles": "O=C(/C=C/c1ccccc1)NCCCCCO", "note": "[Compound A-133, (2E)-N-(5-hydroxypentyl)-3-phenylprop-2-enamide]", "values": [{"measurement": "Neuroblastoma SH-SYSY MTT", "setting": "neuroblastoma SH-SY5Y; 100 µM", "result": "101.50±3.33 % of solvent control"}, {"measurement": "Neuroblastoma SH-SYSY MTT", "setting": "neuroblastoma SH-SY5Y; 150 µM", "result": "100.75±3.01 % of solvent control"}, {"measurement": "Neuroblastoma SH-SYSY MTT", "setting": "neuroblastoma SH-SY5Y; 200 µM", "result": "100.62±5.99 % of solvent control"}, {"measurement": "Neuroblastoma SH-SYSY MTT", "setting": "neuroblastoma SH-SY5Y; 250 µM", "result": "100.41±1.87 % of solvent control"}, {"measurement": "Melanin content [% control, mean ± SD]", "setting": "[1]; 7 applications", "result": "98.62±9.47", "unit": "% control"}, {"measurement": "Viability [% control, mean ± SD]", "setting": "[1]; MTT", "result": "101.22±6.52", "unit": "% control"}, {"measurement": "Increase in the number of yellow wells compared to the reference level", "setting": "S. typhimurium TA1535; 0.5 mM, +S9", "result": 0.47}, {"measurement": "Increase in the number of yellow wells compared to the reference level", "setting": "S. typhimurium TA1535; 0.5 mM, without S9", "result": 0.92}, {"measurement": "Increase in the number of yellow wells compared to the reference level", "setting": "S. typhimurium TA1535; 1.0 mM, +S9", "result": 0.23}, {"measurement": "Increase in the number of yellow wells compared to the reference level", "setting": "S. typhimurium TA1535; 1.0 mM, without S9", "result": 0.55}, {"measurement": "Increase in the number of yellow wells compared to the reference level", "setting": "S. typhimurium TA1535; 2.0 mM, +S9", "result": 0.35}, {"measurement": "Increase in the number of yellow wells compared to the reference level", "setting": "S. typhimurium TA1535; 2.0 mM, without S9", "result": 1.10}, {"measurement": "Keratinocytes (HaCaT) LDH", "setting": "Keratinocytes (HaCaT); 100 µM", "result": "3.23 percentage of positive control"}, {"measurement": "Keratinocytes (HaCaT) LDH", "setting": "Keratinocytes (HaCaT); 150 µM", "result": "3.08 percentage of positive control"}, {"measurement": "Keratinocytes (HaCaT) LDH", "setting": "Keratinocytes (HaCaT); 200 µM", "result": "6.38 percentage of positive control"}, {"measurement": "Keratinocytes (HaCaT) LDH", "setting": "Keratinocytes (HaCaT); 250 µM", "result": "19.58 percentage of positive control"}, {"measurement": "Increase in the number of yellow wells compared to the reference level", "setting": "S. typhimurium TA100; 0.5 mM, +S9", "result": 0.83}, {"measurement": "Increase in the number of yellow wells compared to the reference level", "setting": "S. typhimurium TA100; 0.5 mM, without S9", "result": 0.60}, {"measurement": "Increase in the number of yellow wells compared to the reference level", "setting": "S. typhimurium TA100; 1.0 mM, +S9", "result": 0.78}, {"measurement": "Increase in the number of yellow wells compared to the reference level", "setting": "S. typhimurium TA100; 1.0 mM, without S9", "result": 1.03}, {"measurement": "Increase in the number of yellow wells compared to the reference level", "setting": "S. typhimurium TA100; 2.0 mM, +S9", "result": 0.61}, {"measurement": "Increase in the number of yellow wells compared to the reference level", "setting": "S. typhimurium TA100; 2.0 mM, without S9", "result": 0.57}]}
